According to US10882856B2 (BeiGene, Ltd., priority 2017, dated 2021):
pEC50, pIC50: −log10 of the molar value.

Experiments:
[1] = target: T1, IDO1 (Homo sapiens, UniProt P14902); assay: IDO1 enzymatic assay; type: biochemical; design: His tag (N); made in house; host or cells: E. coli; details: read-out: Enzyme IC50 IDO1
How it was run: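 Compound was incubated with 50 nM His-tagged IDO1 from E. coli, 1.3 mM D-tryptophan, 5 mM L-ascorbic acid, methylene blue and 0.4 mg/mL catalase in 50 mM potassium phosphate pH 7.5, 0.1% BSA, at 24 °C for 1.5 hours. Activity was the slope of N'-formylkynurenine formation read continuously at 321 nm for 1 hour. IC50 was obtained from remaining activity versus compound concentration.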

[2] = target: T1, IDO1; assay: Hela cell-based IDO1 assay; details: Hela cells
How it was run: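 Kynurenine was measured at 480 nm in trichloroacetic acid-deproteinised supernatant after adding 2% 4-(dimethylamino)benzaldehyde. This supernatant came from HeLa cells seeded at 8000 per well in 96-well plates in phenol red-free DMEM with 10% FBS and, from 4 hours after seeding, exposed for 48 hours at 37 °C, 5% CO2 to DMSO-diluted compound dilutions, IFN-γ (final 100 ng/mL) and 0.4 mM L-Trp. The resulting data were fitted with a four-parameter logistic model in XLfit. Potency was taken from those fits.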

[3] = target: T2, cellular TDO2 in HEK293-TDO2 cells (Homo sapiens, UniProt P48775); assay: 293-TDO2 cell-based assay (Kyn colorimetric); details: 48 hours of incubation
T2 construct: expressed in transfected cells; host or cells: HEK293 (ATCC), stably transfected
How it was run: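 Kyn formed from L-Trp was read colorimetrically at 480 nm (TCA deproteinisation, then 2% 4-(dimethylamino)benzaldehyde). Compounds were added to 293-TDO2 cells 4 h post-seeding and left 48 h at 37° C. A four-parameter logistic model gave IC50 values.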

T2 sequence (P48775 whole entry): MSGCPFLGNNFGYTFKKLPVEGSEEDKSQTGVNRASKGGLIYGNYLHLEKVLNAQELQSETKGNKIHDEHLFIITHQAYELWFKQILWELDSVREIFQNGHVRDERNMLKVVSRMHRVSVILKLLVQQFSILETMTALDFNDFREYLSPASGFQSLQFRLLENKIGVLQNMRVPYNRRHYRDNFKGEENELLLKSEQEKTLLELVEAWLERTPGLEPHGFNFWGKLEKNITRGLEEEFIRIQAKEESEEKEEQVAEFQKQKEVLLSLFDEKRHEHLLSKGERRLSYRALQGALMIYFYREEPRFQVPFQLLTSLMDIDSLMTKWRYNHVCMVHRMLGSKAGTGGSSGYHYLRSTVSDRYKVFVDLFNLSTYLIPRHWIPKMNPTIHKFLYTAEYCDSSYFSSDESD
T1 sequence (P14902 whole entry): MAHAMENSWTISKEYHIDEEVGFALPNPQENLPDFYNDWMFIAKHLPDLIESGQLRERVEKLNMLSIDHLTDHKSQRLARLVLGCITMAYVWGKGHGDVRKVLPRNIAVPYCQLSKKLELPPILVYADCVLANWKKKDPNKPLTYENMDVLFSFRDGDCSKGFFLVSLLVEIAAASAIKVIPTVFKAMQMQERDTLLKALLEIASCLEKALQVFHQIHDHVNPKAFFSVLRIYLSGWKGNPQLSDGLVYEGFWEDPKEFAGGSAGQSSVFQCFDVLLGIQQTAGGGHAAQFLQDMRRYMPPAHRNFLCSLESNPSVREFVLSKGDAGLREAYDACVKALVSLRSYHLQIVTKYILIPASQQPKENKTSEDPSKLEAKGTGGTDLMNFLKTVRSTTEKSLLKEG

| SMILES | pIC50 [1] | pEC50 [2] | pEC50 [3] |
| --- | --- | --- | --- |
| Oc1cccc(C2CCC(C(O)c3c(C4CC4)ccc4cncn34)CC2)c1 (stereo not drawn) [Example D142, 3-(4-((6-cyclopropylimidazo[1,5-a]pyridin-5-yl)(hydroxy)methyl)cyclohexyl)phenol] | 7.49 | 7.40 | < 5.00 |
| COc1cccc(C2CCC(C(O)c3c(C4CC4)ccc4cncn34)CC2)c1 (stereo not drawn) [Example D143, (6-cyclopropylimidazo[1,5-a]pyridin-5-yl)(4-(3-methoxyphenyl)cyclohexyl)methanol] | 7.48 | 7.21 | < 5.00 |
| OC(c1c(C2CC2)ccc2cncn12)C1CCC(c2cc(F)cc(F)c2)CC1 (stereo not drawn) [Example D144, (6-cyclopropylimidazo[1,5-a]pyridin-5-yl)(4-(3,5-difluorophenyl)cyclohexyl)methanol] | 7.38 | 7.02 | < 5.00 |
| OC(c1c(C2CC2)ccc2cncn12)C1CCC(c2ccc(F)c(F)c2F)CC1 (stereo not drawn) [Example D145, (6-cyclopropylimidazo[1,5-a]pyridin-5-yl)(4-(2,3,4-trifluorophenyl)cyclohexyl)methanol] | 7.27 | 6.34 | < 5.00 |
| COc1ccc(C2CCC(C(O)c3c(C4CC4)ccc4cncn34)CC2)c(Cl)c1 (stereo not drawn) [Example D147, (4-(2-chloro-4-methoxyphenyl)cyclohexyl)(6-cyclopropylimidazo[1,5-a]pyridin-5-yl)methanol] | 7.37 | 6.35 | < 5.00 |
| COc1ccc(C2CCC(C(O)c3c(C4CC4)ccc4cncn34)CC2)cc1Cl (stereo not drawn) [Example D148, (4-(3-chloro-4-methoxyphenyl)cyclohexyl)(6-cyclopropylimidazo[1,5-a]pyridin-5-yl)methanol] | 7.40 | 6.73 | < 5.00 |
| OC(c1c(C2CC2)ccc2cncn12)C1CCC(c2ccnc3ccc(F)cc23)CC1 (stereo not drawn) [Example D150, (6-cyclopropylimidazo[1,5-a]pyridin-5-yl)(4-(6-fluoroquinolin-4-yl)cyclohexyl)methanol] | 7.44 | 7.43 | < 5.00 |
| O=C(COc1ccc([C@H]2CC[C@H]([C@H](O)c3c(C4CC4)ccc4cncn34)CC2)cc1)c1ccccc1 [Example D152, 2-(4-((1S,4r)-4-((S)-(6-cyclopropylimidazo[1,5-a]pyridin-5-yl)(hydroxy)methyl)cyclohexyl)henoxy)-1-phenylethan-1-one] | 7.43 | 6.93 | < 5.00 |
| OC(c1c(C2CC2)ccc2cncn12)C1CCC(c2cc3ccccc3s2)CC1 (stereo not drawn) [Example D154, (4-(benzo[b]thiophen-2-yl)cyclohexyl)(6-cyclopropylimidazo[1,5-a]pyridin-5-yl)methanol] | 7.17 | 6.19 | < 5.00 |
| OC(c1c(C2CC2)ccc2cncn12)C1CCC(c2csc3ccccc23)CC1 (stereo not drawn) [Example D155, (4-(benzo[b]thiophen-3-yl)cyclohexyl)(6-cyclopropylimidazo[1,5-a]pyridin-5-yl)methanol] | 7.15 | 7.06 | < 5.00 |
| OC(c1c(C2CC2)ccc2cncn12)C1CCC(c2cccc(F)c2)CC1 (stereo not drawn) [Example D156, (6-cyclopropylimidazo[1,5-a]pyridin-5-yl)(4-(3-fluorophenyl)cyclohexyl)methanol] | 7.24 | 7.12 | < 5.00 |
| OC(c1c(C2CC2)ccc2cncn12)C1CCC(c2ccc3ncccc3c2)CC1 (stereo not drawn) [Example D157, (6-cyclopropylimidazo[1,5-a]pyridin-5-yl)(4-(quinolin-6-yl)cyclohexyl)methanol] | 7.51 | 7.12 | < 5.00 |
| CC(=O)c1ccc(C2CCC(C(O)c3c(C4CC4)ccc4cncn34)CC2)cc1 (stereo not drawn) [Example D158] | 7.24 | 6.08 | < 5.00 |
| OC(c1c(C2CC2)ccc2cncn12)C1CCC(c2ccc3cccnc3c2)CC1 (stereo not drawn) [Example D161, (6-cyclopropylimidazo[1,5-a]pyridin-5-yl)(4-(quinolin-7-yl)cyclohexyl)methanol] | 7.47 | 6.58 | < 5.00 |
| OC(c1c(C2CC2)ccc2cncn12)C1CCC(c2ccc(F)c3ncccc23)CC1 (stereo not drawn) [Example D163, (6-cyclopropylimidazo[1,5-a]pyridin-5-yl)(4-(8-fluoroquinolin-5-yl)cyclohexyl)methanol] | 7.40 | 7.32 | < 5.00 |
| OC(c1c(C2CC2)ccc2cncn12)C1CCC(c2ccnc3c(F)cccc23)CC1 (stereo not drawn) [Example D164, (6-cyclopropylimidazo[1,5-a]pyridin-5-yl)(4-(8-fluoroquinolin-4-yl)cyclohexyl)methanol] | 7.48 | 7.29 | < 5.00 |
| CC(C)c1ccc2cncn2c1C(O)C1CCC(c2ccc(F)cc2)CC1 (stereo not drawn) [Example D166, (4-(4-fluorophenyl)cyclohexyl)(6-isopropylimidazo[1,5-a]pyridin-5-yl)methanol] | 7.39 | 7.54 | < 5.00 |
| CC(C)c1ccc2cncn2c1C(O)C1CCC(c2cccc(F)c2)CC1 (stereo not drawn) [Example D167, (4-(3-fluorophenyl)cyclohexyl)(6-isopropylimidazo[1,5-a]pyridin-5-yl)methanol] | 7.16 | 7.40 | < 5.00 |
| CC(C)c1ccc2cncn2c1C(O)C1CCC(c2cccc(Cl)c2)CC1 (stereo not drawn) [Example D168, (4-(3-chlorophenyl)cyclohexyl)(6-isopropylimidazo[1,5-a]pyridin-5-yl)methanol] | 7.42 | 7.38 | < 5.00 |

The next compounds have a higher pIC50 [1] than those just listed; values first:

| pIC50 [1] | pEC50 [2] | pEC50 [3] | SMILES |
| --- | --- | --- | --- |
| 7.55 | 6.68 | < 5.00 | COc1ccc(C2CCC(C(O)c3c(C4CC4)ccc4cncn34)CC2)c(F)c1 (stereo not drawn) [Example D146, (6-cyclopropylimidazo[1,5-a]pyridin-5-yl)(4-(2-fluoro-4-methoxyphenyl)cyclohexyl)methanol] |
| 7.55 | 6.46 | < 5.00 | NS(=O)(=O)Nc1ccc([C@H]2CC[C@H]([C@H](O)c3c(C4CC4)ccc4cncn34)CC2)cc1 [Example D165, 1-(4-((1 S,4r)-4-((S)-(6-cyclopropylimidazo[1,5-a]pyridin-5-yl)(hydroxy)methyl)cyclohexyl)phenyl) sulfuric diamide] |
| 7.55 | 7.66 | < 5.00 | COc1cccc(C2CCC(C(O)c3c(C(C)C)ccc4cncn34)CC2)c1 (stereo not drawn) [Example D169, (6-isopropylimidazo[1,5-a]pyridin-5-yl)(4-(3-methoxyphenyl)cyclohexyl)methanol] |
| 7.59 | 6.31 | < 5.00 | OC(c1c(C2CC2)ccc2cncn12)C1CCC(c2cc(F)c(F)cc2F)CC1 (stereo not drawn) [Example D149, (6-cyclopropylimidazo[1,5-a]pyridin-5-yl)(4-(2,4,5-trifluorophenyl)cyclohexyl)methanol] |
| 7.62 | 7.38 | < 5.00 | OC(c1c(C2CC2)ccc2cncn12)C1CCC(c2ccnc3ccccc23)CC1 (stereo not drawn) [Example D140, (6-cyclopropylimidazo[1,5-a]pyridin-5-yl)(4-(quinolin-4-yl)cyclohexyl)methanol] |
| 7.64 | 7.68 | < 5.00 | OC(c1c(C2CC2)ccc2cncn12)C1CCC(c2cccc3ncccc23)CC1 (stereo not drawn) [Example D141, (6-cyclopropylimidazo[1,5-a]pyridin-5-yl)(4-(quinolin-5-yl)cyclohexyl)methanol] |
| 7.68 | 7.37 | < 5.00 | OC(c1c(C2CC2)ccc2cncn12)C1CCN(c2ccccc2)CC1 (stereo not drawn) [Example D170, (6-cycloropylimidazo[1,5-a]pyridin-5-yl)(1-phenylpiperidin-4-yl)methanol] |
| 7.82 | 7.48 | < 5.00 | CC(=O)COc1ccc([C@H]2CC[C@H]([C@H](O)c3c(C4CC4)ccc4cncn34)CC2)cc1 [Example D151, 1-(4-((1 S,4r)-4-((S)-(6-cyclopropylimidazo[1,5-a]pyridin-5-yl)(hydroxy)methyl)cyclohexyl)phenoxy)propan-2-one] |
| 7.82 | 6.89 | < 5.00 | NC(=O)Nc1ccc([C@H]2CC[C@H]([C@H](O)c3c(C4CC4)ccc4cncn34)CC2)cc1 [Example D160, 1-(4-((1S,4r)-4-((S)-(6-cyclopropylimidazo[1,5-a]pyridin-5-yl)(hydroxy)methyl)cyclohexyl)phenyl)urea] |
| 7.92 | 7.10 | < 5.00 | CC(=O)Nc1ccc([C@H]2CC[C@H]([C@H](O)c3c(C4CC4)ccc4cncn34)CC2)cc1 [Example D159, N-(4-((1S,4r)-4-((S)-(6-cyclopropylimidazo[1,5-a]pyridin-5-yl)hydroxy)methylcyclohexyl)phenyl)acetamide] |
| 7.96 | 6.84 | < 5.00 | NC(=O)c1ccc([C@H]2CC[C@H]([C@H](O)c3c(C4CC4)ccc4cncn34)CC2)cc1 [Example D153, 4-((1S,4r)-4-(S)-(6-cyclopropylimidazo[1,5-a]pyridin-5-yl(hydroxy)methyl)cyclohexyl)benzamide] |
